Source: the NIST ThermoML archive (doi:10.1021/je0601457)
± gives the expanded uncertainty stated by the source.

Assay: xn = mol fraction of the nth substance listed
Settings: Liquid, linear displacement

COc1cnccn1 [methoxypyrazine] + O=C=O
Settings	mass density [kg/m3]
294.35 K, x1 = 0.107	802 ± 32
294.55 K, x1 = 0.129	922 ± 39
295.15 K, x1 = 0.069	809 ± 32
295.15 K, x1 = 0.919	1033 ± 42
295.25 K, x1 = 0.015	726 ± 29
295.25 K, x1 = 0.039	780 ± 31
295.75 K, x1 = 0.207	911 ± 38
295.75 K, x1 = 0.379	929 ± 37
296.35 K, x1 = 0.025	797 ± 32
296.85 K, x1 = 0.232	981 ± 39
297.15 K, x1 = 0.919	1109 ± 44
298.15 K, x1 = 0.379	934 ± 37
299.55 K, x1 = 0.015	749 ± 30
299.95 K, x1 = 0.919	1063 ± 43
303.35 K, x1 = 0.025	778 ± 31
303.75 K, x1 = 0.015	718 ± 29
304.35 K, x1 = 0.007	679 ± 27
305.95 K, x1 = 0.919	1097 ± 44
306.95 K, x1 = 0.207	945 ± 38
307.15 K, x1 = 0.069	843 ± 34
307.55 K, x1 = 0.129	920 ± 37
307.95 K, x1 = 0.039	778 ± 31
310.65 K, x1 = 0.107	860 ± 34
311.95 K, x1 = 0.637	1122 ± 45
312.55 K, x1 = 0.379	1012 ± 41
313.55 K, x1 = 0.025	696 ± 28
314.15 K, x1 = 0.232	987 ± 40
317.85 K, x1 = 0.919	1085 ± 43
326.85 K, x1 = 0.129	864 ± 35
328.45 K, x1 = 0.207	906 ± 36
330.65 K, x1 = 0.379	982 ± 39
332.45 K, x1 = 0.232	948 ± 38
332.65 K, x1 = 0.637	1097 ± 44
332.65 K, x1 = 0.919	1063 ± 43
332.85 K, x1 = 0.107	794 ± 32
348.55 K, x1 = 0.207	866 ± 35
348.65 K, x1 = 0.379	958 ± 38
348.95 K, x1 = 0.919	1050 ± 42
354.15 K, x1 = 0.232	902 ± 36
354.35 K, x1 = 0.637	1070 ± 43
366.45 K, x1 = 0.379	933 ± 37
367.35 K, x1 = 0.637	1055 ± 43
367.65 K, x1 = 0.207	824 ± 33
368.95 K, x1 = 0.232	864 ± 35
